One series has as its system mice. The following applies: mouse.
The subject of another series is Mycobacterium avium 101. Nature of the series: In vivo efficacy in mice infected with Mycobacterium avium 101 (FIG. 2). The following applies: dosed orally with 25 mg/kg and 100 mg/kg.
A further series is described as follows: in vivo. The conditions noted are these: mouse, MTD (maximum tolerated dose).
A further series has as its system M. avium. In words: Murine MAC infection model, two week infection in Balb/c mice. The series is classed as in vivo, Mycobacterium avium. The following applies: two week infection experiment, control. The source says: AND CHEMOTHERAPY, 1995, 39(8), 1647-1654 for review of MAC infection model and Antimicrob Agents Chemother. 1992, 36(11):2413-7 for a typical experiment (done with clarithromycin).

The term melting point denotes the temperature, or range, at which the solid turns liquid. One may read the MTD as the highest dose tested that stayed within the study's limit of toxicity. Low values mean poorer tolerability, high ones better tolerability.

Description for Mycobacterium avium 101: Panel A is the log 10 colony forming units (CFU) drop in bacteria in the lungs when treated with ND-10885 (at 25 and 100 mg/kg), rifampicin (RMP, 20 mg/kg) and a combination of ND-10885 (100 mg/kg) and rifampicin (20 mg/kg). Panel B is the log 10 colony forming units (CFU) drop in bacteria in the spleen when treated with ND-10885 (at 25 and 100 mg/kg), rifampicin (RMP, 20 mg/kg) and a combination of ND-10885 (100 mg/kg) and rifampicin (20 mg/kg). Panel C is the log 10 colony forming units (CFU) drop in bacteria in the liver when treated with ND-10885 (at 25 and 100 mg/kg), rifampicin (RMP, 20 mg/kg) and a combination of ND-10885 (100 mg/kg) and rifampicin (20 mg/kg).

`Cc1ccn2c(C(=O)NCc3ccc(S(F)(F)(F)(F)F)cc3)c(C)nc2c1`: the melting point lay within 186 to 187 °C.
In turn, `CCc1nc2ccc(Cl)cn2c1C(=O)NCc1ccc(S(F)(F)(F)(F)F)cc1` displayed a melting point of 191 to 192 °C.
With `Cc1ccc2nc(C)c(C(=O)NCc3ccc(S(F)(F)(F)(F)F)cc3)n2c1`, the melting point lay in the range of 176 to 177 °C.
On to `Cc1ccn2c(C(=O)NCc3ccc(N4CCOCC4)cc3)c(C)nc2c1` [ND-10823], for which, in the series with mice, the “dose limiting toxicity / in vivo toxicity” value is on record as 100 mg/kg.
Consider `Cc1ccn2c(C(=O)NCc3ccc4c(c3)CCO4)c(C)nc2c1` [ND-10885], for which, in the series on Mycobacterium avium 101, the “in vivo efficacy (log 10 CFU drop in lungs, spleen, liver)” value is “validate the in vivo efficacy”.
In the series “in vivo”, `Cc1ccn2c(C(=O)NCc3ccc(N4CCCN(c5ccc(C(F)(F)F)cc5)CC4)c(F)c3)c(C)nc2c1` [ND-11598] displayed an MTD of at least 250 mg/kg.
Same read-out and setting: the value for `CCc1nc2ccc(Cl)cn2c1C(=O)NCc1ccc(N2CCSCC2)c(F)c1` [ND-11622] was at least 250 mg/kg.
With `CO[C@H]1/C=C/O[C@@]2(C)Oc3c(C)c(O)c4c(O)c(c(/C=N/N5CCN(C)CC5)c(O)c4c3C2=O)NC(=O)/C(C)=C\C=C\[C@H](C)[C@H](O)[C@@H](C)[C@@H](O)[C@@H](C)[C@H](OC(C)=O)[C@@H]1C` [rifampicin], the “log 10 CFU drop in the amount of M. avium in the lungs” value in the series on M. avium is 1.8 log 10 CFU.

Values taken from patent US10919888B2, “Benzyl amine-containing heterocyclic compounds and compositions useful against mycobacterial infection” (priority 2015, dated 2021).
